Experimental data: article PMC10520499, “Next step in the development of mesoprogestins: the preclinical profile of EC313” (Frontiers in Endocrinology, 2023)
Several values for one entry are separate records, joined by “and”; a condition that tells them apart may be missing. Equal entries are not always repeated. Marks after values point to notes of the source that are not given here.

Columns and labels:
[1] = tested on: human progesterone receptor (full length, PRA); test: Competitive binding, full length human progesterone receptor; conditions: compared to progesterone
Method: The study aimed to characterize the competitive binding profile of EC313 to relevant human nuclear receptors. For the assays, commercially available ‘ligand binding domain’ proteins were purchased (Thermo Fisher Scientific). In addition, the full-length receptor proteins were expressed in transfected HI insect cells using the `Bac-to-bac Baculovirus expression system´ (Thermo Fisher Scientific). Cellular lysates served as receptor preparation. Receptor protein preparations were incubated with tritiated reference ligands and EC313 or reference steroids at concentrations between 0.1 and 1000 nM for 2h at 4°C to reach equilibrium. Subsequently, unbound steroids were adsorbed to dextran-coated charcoal (Sigma Aldrich), separated by filtration, and the remaining radioactivity was quantified in a ß-counter (Perkin Elmer). Displacement curves were fitted using the GraphPad Prism 7 free version to obtain EC50 values. Relative binding affinity (RBA [%], (C50ref/C50test)*100) and the competition coefficient (C50test/C50ref) were used to describe the relative binding potency of EC313 compared to the reference ligands.

[2] = tested on: estrogen-primed endometrium of immature rabbits; test: McPhail assay, estrogen-primed rabbit endometrium; format: in vivo
Method: The secretory transformation of estrogen-primed endometrium of immature rabbits indicates the strength of the progestagenic action on the endometrium of the chosen test compound. The simultaneous administration of test compounds with progesterone can indicate potential anti-progestagenic actions.
Female rabbits received daily s.c. injections of 5.0 µg 17β-Estradiol/per animal for 6 days leading to the proliferation of the endometrium. From day 7 to day 13 the animals received doses of vehicle, EC313 (1 to 30 mg/animal/day s.c) or progesterone. On day 14, the animals were sacrificed and the uteri were processed for histological evaluation and the secretory endometrial transformation was rated according to a modified McPhail score (1 – 4).
The rating scale ranges from 1 (no or very low secretory, transformation, or agonistic activity) to 4 (highest secretory, transformation, or agonistic activity). The McPhail score of 2 (median) was selected for the comparison. The antagonistic activity was measured by the concomitant administration of progesterone ([…] s.c.).

[3] = tested on: adrenalectomized male Wistar rats; test: Thymus-Involution-Test in adrenalectomized rats; format: in vivo, rat; conditions: doses up to 100 mg/animal/day s.c., 4 days
Method: The standard Thymus-Involution-Test in rats was used. […] On day 5 the animals were sacrificed, and the thymus and spleen weights were determined. Reduced weight of the thymus indicated glucocorticoid activity. Stopping the dexamethasone-induced thymus reduction by the test compound indicated anti-glucocorticoid activity.

PR-B – NCoR = biological target: T1, PR-B – NCoR (Homo sapiens, UniProt P06401); test: PR-B – NCoR interaction, two-hybrid system; format: cell-based
T1 construct: expressed in transfected cells
Text: The active recruitment of the nuclear corepressor NCoR results in transcriptional inactivity of the PR. So, the potency of PR ligands to induce the interaction of PR with NCoR provides information on the antagonistic potency of the ligand. Therefore, the capacity of EC313 to induce the interaction of PR-B with the corepressor NCoR in comparison with reference ligands was studied. All test compounds except the receptor agonist Promegestone induced PR to interact with NCoR.
Figure 11 (A) PR-B interaction with NCoR using a two-hybrid assay. Dose response curve. […] (B) Liganded PR-Binteraction with c-SRC kinase. The data presented are from five independent experiments. Signals are represented as mean luminescence ± SD normalized to maximal promegestone activity equal to 100%.

human PRA = human PRA (Homo sapiens, UniProt P06401); test: PR-A transactivation (CHO, MMTV-LUC); format: cell-based
Method: Due to the existence of two isoforms of the PR receptor (PRA and PRB) and the fact that both of them control expression of a largely different set of genes, separate assays for each of them were carried out.
In order to develop the transfection assay, plasmids were generated and isolated. Plasmids included vectors with the coding sequences for the receptor as well as the reporter gene, respectively. The vector pcDNA3.1 coding sequence for the full length of human PRA and PRB (cDNA ORF clone in pcDNA3.1+/C-(K)-DYK) was used as an expression vector for PR isoform A and B, respectively. Vector pGL4.36 coding for the progesterone responsive element MMTV and firefly luciferase reporter vector [luc2P/Hygro] were used as reporter systems (pGL4.36-MMTV/LUC).
A sufficient transactivation signal was achieved using stable transfection for the human PRA and PRB receptors and transient transfection for the MMTV-luciferase reporter gene. Therefore, the first stable transfection with the receptor of interest was performed. Thus, 0.5x10^6 CHO cells per well were plated into 6-well plates in transfection medium w/o antibiotics (RPMI phenol-free, 10% FBS,2mM L-glutamine). When the cells reached 80% confluency, transfection with receptor using FuGENE 6 in Opti-MEM medium was accomplished according to the manufacturer’s instruction. After 48h of transfection, stably transfected cells were cultured in a growth medium containing an antibiotic (G418 500 µg/mL). Only cells with the resistance gene (resistance to G418), which had been transfected together with the DNA for PRA and PRB were able to grow in this medium. Consequently, growing cell clones were selected for further steps as stable transfectants. The CHO cells stably transfected with the expression of PRA or PRB were transiently transfected with promoter MMTV/LUC vectors. […]
After 24h incubation of cells with tested compounds, luciferase activity was measured using a VICTOR™ X Multilabel Plate Reader -Perkin Elmer.

[4] = tested on: human uterine fibroid xenografts; test: Human uterine fibroid xenografts in NOD-SCID mice; format: in vivo; conditions: Part B; 0.01 mg/kg/day s.c.
Method: Fibroids/Leiomyoma are one of the clinical target indications for the development of EC313. But, there are no very reliable pre-clinical models known at present. From all experimental approaches, the transplantation of human fibroid tissue into immunodeficient mice s.c. resembles the clinical situation most closely. UPA served as a reference compound. There were two study parts: A and B. Part A is already published ([2]). Human uterine fibroid samples (2x2x2 mm; weighting roughly 8 mg) were transplanted s.c. into NOD-SCID mice 3 weeks after ovariectomy. Simultaneously, the animals were supplemented s.c. with E2-releasing pellets (0.05 mg E2/90 days release). The treatment period over 60 days (5 treatment days a week) started immediately after transplantation. There was a sham control, an E2 control, two EC313-group, one Ulipristal (UA) group, and a combination of UPA+EC313 (Part A). […] The animals were sacrificed after a treatment period of 60 days. Graft weights were the primary endpoint (parts A and B); histological findings including immunostainings of the grafts were used as secondary endpoints (part A).

T1 sequence (P06401 whole entry): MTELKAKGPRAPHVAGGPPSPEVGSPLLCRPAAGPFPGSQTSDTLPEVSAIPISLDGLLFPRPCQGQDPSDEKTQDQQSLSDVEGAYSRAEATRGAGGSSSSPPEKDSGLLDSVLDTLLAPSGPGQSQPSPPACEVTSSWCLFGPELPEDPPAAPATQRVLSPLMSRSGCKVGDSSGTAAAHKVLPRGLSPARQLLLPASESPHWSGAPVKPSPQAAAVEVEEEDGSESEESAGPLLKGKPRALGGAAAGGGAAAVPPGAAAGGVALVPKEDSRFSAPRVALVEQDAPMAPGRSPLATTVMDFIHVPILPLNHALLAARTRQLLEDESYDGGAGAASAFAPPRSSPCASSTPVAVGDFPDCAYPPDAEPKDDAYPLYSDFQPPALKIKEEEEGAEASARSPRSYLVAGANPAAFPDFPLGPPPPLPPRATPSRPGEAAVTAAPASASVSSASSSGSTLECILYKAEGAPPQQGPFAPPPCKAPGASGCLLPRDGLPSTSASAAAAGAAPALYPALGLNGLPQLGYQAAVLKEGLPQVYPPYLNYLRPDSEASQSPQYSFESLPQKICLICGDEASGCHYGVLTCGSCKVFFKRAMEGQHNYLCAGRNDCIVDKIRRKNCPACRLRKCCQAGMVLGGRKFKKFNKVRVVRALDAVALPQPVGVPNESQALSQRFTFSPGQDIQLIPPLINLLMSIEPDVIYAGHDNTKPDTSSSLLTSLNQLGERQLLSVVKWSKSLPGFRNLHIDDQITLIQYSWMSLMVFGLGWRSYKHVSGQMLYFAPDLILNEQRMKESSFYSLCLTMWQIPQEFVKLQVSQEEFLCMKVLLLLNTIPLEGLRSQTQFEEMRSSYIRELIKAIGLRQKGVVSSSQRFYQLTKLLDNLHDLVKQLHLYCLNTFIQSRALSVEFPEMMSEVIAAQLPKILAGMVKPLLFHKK
T1 sequence (O75376 whole entry partner): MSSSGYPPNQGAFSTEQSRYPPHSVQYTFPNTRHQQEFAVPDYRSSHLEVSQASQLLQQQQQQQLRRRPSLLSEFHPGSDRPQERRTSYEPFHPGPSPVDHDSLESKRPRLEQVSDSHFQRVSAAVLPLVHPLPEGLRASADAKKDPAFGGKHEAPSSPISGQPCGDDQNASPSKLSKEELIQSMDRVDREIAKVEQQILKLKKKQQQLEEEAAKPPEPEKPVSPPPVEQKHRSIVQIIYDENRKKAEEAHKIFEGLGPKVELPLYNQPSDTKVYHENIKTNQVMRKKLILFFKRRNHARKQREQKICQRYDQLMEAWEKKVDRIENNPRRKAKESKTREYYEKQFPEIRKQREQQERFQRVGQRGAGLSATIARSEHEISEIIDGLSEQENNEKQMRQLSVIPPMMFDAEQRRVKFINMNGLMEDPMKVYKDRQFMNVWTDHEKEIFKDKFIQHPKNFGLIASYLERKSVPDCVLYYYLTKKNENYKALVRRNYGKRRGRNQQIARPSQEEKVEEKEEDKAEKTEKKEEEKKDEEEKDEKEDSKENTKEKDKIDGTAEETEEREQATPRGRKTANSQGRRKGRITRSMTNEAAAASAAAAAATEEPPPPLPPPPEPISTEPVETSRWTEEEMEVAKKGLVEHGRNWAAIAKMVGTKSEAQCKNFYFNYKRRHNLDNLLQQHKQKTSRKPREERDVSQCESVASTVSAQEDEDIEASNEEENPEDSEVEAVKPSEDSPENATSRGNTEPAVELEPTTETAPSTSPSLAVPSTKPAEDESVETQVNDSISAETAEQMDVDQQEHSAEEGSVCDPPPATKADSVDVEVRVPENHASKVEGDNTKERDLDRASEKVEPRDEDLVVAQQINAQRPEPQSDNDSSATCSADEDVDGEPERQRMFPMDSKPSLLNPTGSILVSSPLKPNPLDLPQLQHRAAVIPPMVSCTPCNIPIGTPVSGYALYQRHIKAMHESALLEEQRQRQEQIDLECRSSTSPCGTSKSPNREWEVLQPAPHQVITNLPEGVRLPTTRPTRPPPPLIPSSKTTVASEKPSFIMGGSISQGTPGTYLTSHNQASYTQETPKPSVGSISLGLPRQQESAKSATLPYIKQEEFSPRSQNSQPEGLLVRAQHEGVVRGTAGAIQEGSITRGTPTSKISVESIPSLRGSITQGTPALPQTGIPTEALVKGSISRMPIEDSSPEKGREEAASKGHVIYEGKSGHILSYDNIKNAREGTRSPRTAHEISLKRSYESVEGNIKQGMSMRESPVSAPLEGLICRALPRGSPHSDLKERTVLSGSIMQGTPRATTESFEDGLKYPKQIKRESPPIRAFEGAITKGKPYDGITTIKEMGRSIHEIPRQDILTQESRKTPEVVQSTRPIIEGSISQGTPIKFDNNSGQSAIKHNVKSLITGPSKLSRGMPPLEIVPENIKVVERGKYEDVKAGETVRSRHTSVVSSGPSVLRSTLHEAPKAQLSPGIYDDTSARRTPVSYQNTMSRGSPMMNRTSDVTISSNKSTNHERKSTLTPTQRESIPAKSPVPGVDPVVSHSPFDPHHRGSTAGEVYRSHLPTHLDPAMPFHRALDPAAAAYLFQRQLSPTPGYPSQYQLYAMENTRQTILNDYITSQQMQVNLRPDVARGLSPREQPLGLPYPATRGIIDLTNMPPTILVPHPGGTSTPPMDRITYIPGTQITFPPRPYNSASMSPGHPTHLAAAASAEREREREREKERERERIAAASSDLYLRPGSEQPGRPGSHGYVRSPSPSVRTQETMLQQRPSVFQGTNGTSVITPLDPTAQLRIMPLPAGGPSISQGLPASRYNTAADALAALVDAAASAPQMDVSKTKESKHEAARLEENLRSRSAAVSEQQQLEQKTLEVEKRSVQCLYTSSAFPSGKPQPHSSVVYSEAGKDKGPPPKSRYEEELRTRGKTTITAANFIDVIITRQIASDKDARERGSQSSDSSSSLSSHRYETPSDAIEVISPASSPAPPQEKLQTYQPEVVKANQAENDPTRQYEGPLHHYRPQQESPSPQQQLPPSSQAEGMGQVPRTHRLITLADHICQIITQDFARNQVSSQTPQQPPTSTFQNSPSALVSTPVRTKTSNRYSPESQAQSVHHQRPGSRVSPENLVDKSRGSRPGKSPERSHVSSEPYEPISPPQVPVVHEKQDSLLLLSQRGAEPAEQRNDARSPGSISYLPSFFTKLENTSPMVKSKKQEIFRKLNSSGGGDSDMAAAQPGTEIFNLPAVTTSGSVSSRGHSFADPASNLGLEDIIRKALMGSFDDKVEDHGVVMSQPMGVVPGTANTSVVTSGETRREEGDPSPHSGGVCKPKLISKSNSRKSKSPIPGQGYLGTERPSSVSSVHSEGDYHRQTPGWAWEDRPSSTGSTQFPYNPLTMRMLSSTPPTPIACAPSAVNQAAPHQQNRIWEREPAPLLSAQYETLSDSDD
human PRA, sequence (P06401 165-933): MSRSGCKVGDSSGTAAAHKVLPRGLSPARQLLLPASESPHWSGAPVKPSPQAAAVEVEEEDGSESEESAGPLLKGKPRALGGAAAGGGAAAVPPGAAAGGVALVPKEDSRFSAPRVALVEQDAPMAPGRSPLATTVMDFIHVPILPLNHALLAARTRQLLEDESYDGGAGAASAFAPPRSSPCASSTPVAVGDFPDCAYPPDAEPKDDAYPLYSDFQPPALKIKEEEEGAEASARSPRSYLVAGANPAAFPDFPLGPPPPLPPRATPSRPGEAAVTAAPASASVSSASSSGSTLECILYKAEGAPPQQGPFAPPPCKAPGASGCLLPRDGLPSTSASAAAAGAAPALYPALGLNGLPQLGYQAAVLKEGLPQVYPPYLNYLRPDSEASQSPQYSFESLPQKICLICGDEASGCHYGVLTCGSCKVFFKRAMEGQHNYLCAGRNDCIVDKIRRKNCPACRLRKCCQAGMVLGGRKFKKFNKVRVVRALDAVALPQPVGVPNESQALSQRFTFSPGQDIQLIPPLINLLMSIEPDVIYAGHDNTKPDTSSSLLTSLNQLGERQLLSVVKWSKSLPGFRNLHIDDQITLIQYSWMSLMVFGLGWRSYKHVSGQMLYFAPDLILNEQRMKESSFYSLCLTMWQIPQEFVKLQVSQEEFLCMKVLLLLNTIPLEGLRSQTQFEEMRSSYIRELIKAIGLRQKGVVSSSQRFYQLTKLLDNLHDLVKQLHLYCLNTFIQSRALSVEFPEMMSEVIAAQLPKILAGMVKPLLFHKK

C[C@]12C[C@H](c3ccc(-c4ccoc4)cc3)C3=C4CCC(=O)C=C4CC[C@H]3[C@@H]1CC[C@]21OCCC1=C(F)F [EC313]
competition coefficient [1]: 3.4 | Quotient between antagonistic and agonistic action ([2]; McPhail score 2 doses): ~ 10.0* | maximal effect, McPhail score (average per treatment group) ([2]; agonistic, 1 to 30 mg/animal/day s.c., scale 1-4): ≤ 2.5 | Score 2 for PR-agonistic activity ([2]; dose giving McPhail score 2): ~ 1.0 mg/animal/day s.c. | Score 2 for PR-antagonistic activity ([2]; dose giving McPhail score 2, concomitant progesterone (1 g/animal/day [sic] s.c.)): ~ 10.0 mg/animal/day s.c. | relatively more agonistic than antagonistic effects in comparison with Asoprisnil ([2]; rabbit, in vivo): approx. 7 times | glucocorticoid / anti-glucocorticoid activity (thymus weight) [3]: neither glucocorticoid nor anti-glucocorticoid activities | efficacy relative to Ulipristal acetate, NCoR interaction (PR-B – NCoR): 83% | fold lower potency than Ulipristal acetate, NCoR interaction (PR-B – NCoR): 200 fold | induction of PR interaction with NCoR (PR-B – NCoR): limited ability to induce progesterone receptor interaction with NCoR | IC50 (human PRA; Promegestone 35 nM, read-out: IC50, antagonism of Promegestone-induced reporter gene expression): 7.96 nM and 8 nM | EC50 (human PRA; weak agonistic activity, in the range of the maximum concentration tested): ~1000 nM | anti-fibroid activity at very low dose [4]: demonstrated
